Laboratory results from patent US12685724B2, “Antidepressant therapy” (ICHILOV TECH LTD., priority 2020, dated 2026).

Tests used:
[1] = system: simian immunodeficiency virus (SIV)-mediated CNS disease; details: rhesus macaques; cited from earlier work
hemiparkinsonian monkeys = details: cited from earlier work
[2] = system: patients suffering from post-stroke depression (PSD); experiment: Clinical study of maraviroc in patients suffering from post-stroke depression (PSD); assay type: in vivo, human
Method: A clinical study to evaluate the safety, tolerability and efficacy of maraviroc in patients suffering from post-stroke depression (PSD) was performed as follows:
Ten men and women aged 50 to 86 years who experience stroke, i.e., cerebral infarction or transient ischemic attack (TIA) prior to the initiation of the study were enrolled to the study. These subjects also experienced a major depressive episode that develops within 12 months from the stroke/TIA. Clinical diagnosis of stroke was performed according to the World Health Organization Monica Project.
Exclusion criteria comprise e.g. 1) significant acute neurologic illness including: impaired consciousness, Parkinson's disease, Huntington's chorea, progressive supranuclear paralysis, brain tumor, subdural hematoma, multiple sclerosis, hydrocephalus, Binswanger's disease, or severe aphasia, 2) patients diagnosed with dementia or significant cognitive impairment as defined by a MoCA score <20 at screening, or other neurological conditions (multiple sclerosis, Parkinson's disease, epilepsy, Huntington's chorea, brain tumor, subdural hematoma, multiple sclerosis, hydrocephalus, or Binswanger's disease), 3) positive serology for Hepatitis B or C; or for HIV.
Each subject received 300 mg maraviroc daily or 150 mg daily for 10 weeks. Post-treatment follow-up was conducted for 8 weeks after the last dose of Maraviroc. During the 10 weeks of maraviroc treatment the subjects were evaluated every two weeks, and during the 8 weeks of follow-up the subjects were evaluated at the 4th and 8th week after the last dose of maraviroc.
The subjects were evaluated for the efficacy of maraviroc by assessing the improvement in depressive symptoms determined by a change from baseline (i.e., Day 1 pre-dose) in the Montgomery-Asberg Depression Rating Scale (MADRS) total score. Other assessments included, for example, assessment of depressive symptoms by the 16-item Quick Inventory of Depressive Symptomatology-Self Report (QIDS-SR16); assessment of remission, defined as a MADRS total score ≤10; assessment of response, defined as a ≥50% reduction from baseline in MADRS total score; evaluation of symptoms of anxiety as assessed by the Generalized Anxiety Disorder 7-item Scale (GAD-7)—each item is rated on a 4-point scale (0 to 3), with the total score range from 0-21 (higher scores indicating more anxiety); and evaluation of cognitive status, as assessed by cognitive score based on repeatable computerized battery of cognitive tests (Neurotrax) and Montreal Cognitive Assessment (MoCA).
Additional assessments include e.g. the clinical global impression-improvement (CGI-I), a 7 point scale that requires the clinician to assess how much the patient's illness has improved or worsened relative to a baseline state at the beginning of the intervention; the clinical global impression-severity (CGI-S), which evaluates the severity of psychopathology from 1 to 7, and provides an overall clinician-determined summary measure that takes into account all available information, including knowledge of the subject's history, psychosocial circumstances, symptoms, behavior, and the impact of the symptoms on the subject's ability to function; Patient Global Impression scales, commonly used measures of symptom severity, treatment response and the efficacy of treatments; the patient global impression-severity (PGI-S), that provides an overall patient-rated summary measure that assesses the severity of the subject's MDD; the patient global impression of change (PGI-C) which provides an overall patient-rated summary that assesses subject perception of change in their MDD since starting study treatment; the EuroQol Group; 5 dimension (EQ-5D) which is a standardized 2-part instrument for use as a measure of health outcome, primarily designed for self-completion by respondents. […]

[3] = system: subjects with CCR5-tropic HIV-1; details: cited from earlier work

**Q.** What does the source list for `Cc1nnc(C(C)C)n1[C@@H]1C[C@H]2CC[C@@H](C1)N2CC[C@H](NC(=O)C1CCC(F)(F)CC1)c1ccccc1` [maraviroc]?
**A.** SIV-mediated CNS disease (SIV RNA in CSF and brain, CD68 immunostaining, axonal APP immunostaining) [1]: inhibited simian immunodeficiency virus (SIV)-mediated CNS disease; effect on the nigrostriatum (hemiparkinsonian monkeys): protects the nigrostriatum; infiltration of T cells into the central nervous system (hemiparkinsonian monkeys): attenuates the infiltration of T cells into the central nervous system; effect on anxiety symptoms ([2]; PSD patients, maraviroc 300 mg daily, GAD-7): effective in reducing anxiety symptoms; side effects reported by the participants during the study ([2]; PSD patients, maraviroc 300 mg once daily oral): 1 transient impotence, 1 severe constipation (drug-unrelated); MADRS score following 10 weeks of treatment ([2]; PSD patients, maraviroc 300 mg once daily oral, 10 weeks, initial MADRS about 35-40): 5-10; MADRS score, best outcome (normal/symptom-absent, remission) ([2]; PSD patients, maraviroc 300 mg once daily oral, initial MADRS >34): < 7; GAD-7 at data collection ([2]; Patient 1, 10 weeks maraviroc 300 mg daily, add-on therapy, GAD-7 at admission 17 (severe)): 10; GAD-7 at data collection ([2]; Patient 2, 10 weeks maraviroc 300 mg daily, add-on therapy, GAD-7 at admission 6 (mild)): 6; GAD-7 at data collection ([2]; Patient 3, week 7 of maraviroc 300 mg daily, add-on therapy, GAD-7 at admission 8 (mild)): 7; CGI severity (CGI-S) after four weeks of treatment ([2]; Patient 4, maraviroc monotherapy 300 mg daily, CGI=5 (markedly ill) at admission): 3; GAD-7 at data collection ([2]; Patient 4, week 4 of maraviroc 300 mg daily, monotherapy, GAD-7 at admission 14 (moderate)): 8; depressive symptoms on quick inventory of depressive symptoms-self report (QIDS-SR) ([2]; all 4 PSD patients, maraviroc 300 mg once daily oral, 4-10 weeks): All patients improved their depressive symptoms; MADRS score after treatment ([2]; all 4 PSD patients, maraviroc 300 mg once daily oral, 4-10 weeks, initial MADRS about 35-40 (>34, severe)): < 20; time from first dose to beginning of treatment effects (time to response), depressive scores evaluated by senior psychiatrist ([2]; all 4 PSD patients, maraviroc 300 mg once daily oral, add-on (patients 1-3) or monotherapy (patient 4)): 1-2 weeks; time from first dose to beginning of self-reported treatment effect ([2]; all 4 PSD patients, self-report depressive scores, maraviroc 300 mg once daily oral): 1-2 weeks; safety and tolerability ([2]; human PSD patients): well-tolerated without safety concerns; potential treatment-emergent adverse events ([3]; pooled data from two trials in subjects with CCR5-tropic HIV-1): Depressive disorders and anxiety symptoms; most common adverse events, at higher frequency compared with placebo ([3]; treatment-experienced subjects): upper respiratory tract infections, cough, pyrexia, rash, and dizziness
